Measured values from patent publication US20180230166A1 (Merck Sharp & Dohme Corp., priority 2015, published 2018).

Legend:
[1] = cited from earlier work
[2] = torcetrapib and atorvastatin concomitantly, compared with atorvastatin alone; cited from earlier work
[3] = biological target: T1, endogenous CETP from serum (Homo sapiens, UniProt P11597); assay: RTA assay in 95% human serum (95% RTA), CETP-catalyzed CE and TG transfer; format: biochemical; settings: RTA assay in 95% human serum; read-out: IC50
T1 construct: yielding a concentration of approximately 15 nM endogenous CETP in the assay; from tissue; host or cells: human serum (95% of the assay volume)
T1 sequence (P11597 18-493): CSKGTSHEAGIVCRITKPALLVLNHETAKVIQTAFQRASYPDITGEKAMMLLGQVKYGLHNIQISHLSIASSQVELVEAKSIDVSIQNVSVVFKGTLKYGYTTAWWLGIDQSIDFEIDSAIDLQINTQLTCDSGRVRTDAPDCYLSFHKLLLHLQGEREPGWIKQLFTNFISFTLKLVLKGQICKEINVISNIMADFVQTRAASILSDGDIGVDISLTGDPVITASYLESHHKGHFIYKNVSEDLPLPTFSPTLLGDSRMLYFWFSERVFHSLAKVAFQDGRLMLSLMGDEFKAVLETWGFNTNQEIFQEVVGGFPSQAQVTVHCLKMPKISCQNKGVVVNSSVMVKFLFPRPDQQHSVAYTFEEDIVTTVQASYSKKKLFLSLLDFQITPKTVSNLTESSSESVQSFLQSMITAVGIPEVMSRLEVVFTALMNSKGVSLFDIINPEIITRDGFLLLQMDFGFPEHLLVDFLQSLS
Experimental: Reagents and sources are: [3H] cholesteryl oleate (GE #TRK.886), [3H] Triolein (Perkin-Elmer NET-431), Butylated hydroxyl toluene (Aldrich, #D4740-4), DOPC (Sigma, #P6354), Sodium Bromide (Fisher scientific #S255-500), PEG 8000 (Fisher, #BP233-1), and human HDL (Intracel Corp #RP-036).
Both assays measure the transfer of [3H] cholesteryl oleate or [3H] triolein from exogenous LDL to HDL.
Radiolabeled donor particles are generated by first combining 100 μl of 200 μM butylated hydroxyl toluene in CHCl3, 216 μL of 21.57 mM DOPC in EtOH, and either 500 μCi [3H]-triolein (Perkin Elmer #NET-431) or 500 μCi [3H]-cholesteryl oleate (GE #TRK886) in a glass tube. Reagents are mixed, dried under nitrogen, and then resuspended in 2 mL of 50 mM Tris, 27 μM EDTA at pH 7.4. After a brief vortex, the solution is sonicated until clear and mixed with 20 mL of fresh human serum. The mixture is incubated overnight at 37° C. The [3H] labeled LDL substrate is separated at 1.063 g/ml density by sequential ultracentrifugal flotation in NaBr according to the method of Havel, Eder, et al., 1955, and Chapman, Goldstein, et al., 1981. Once isolated the particles are dialyzed 3× in CETP buffer (50 mM Tris, pH 7.4, 100 mM NaCl, 1 mM EDTA). Human HDL is purchased from Intracel and used as the acceptor particles.
Transfer assays are performed in a 96-well v-bottom polypropylene plate. […] 1 μL of each test compound diluted in DMSO is added to 47 μL of assay cocktail per well and incubated at 37° C. for 1 hour. To initiate the transfer reaction, 2 μL radiolabeled LDL is added. After an additional 60 min of incubation at 37° C., the transfer action is terminated by precipitation of LDL with an equal volume of 20% W/V PEG 8000. The plates are centrifuged at 2000 rpm for 30 minutes at 4° C. A 40 μL aliquot of the HDL-containing supernatant is transferred to a Packard Optiplate™ with 200 μL of MicroScint™ 20. After mixing, plates are counted by liquid scintillation. Counts present in the supernatant for blanks (wells containing only HDL acceptor, CETP buffer and DMSO) are subtracted from those containing test compounds and used to correct for non-specific transfer.
For the transfer assay using endogenous CETP from serum (95% RTA), the same procedure is used except that human serum is added such that a final concentration of serum of 95% of the total assay volume is achieved, yielding a concentration of approximately 15 nM endogenous CETP in the assay. This is then combined with HDL and CETP buffer and the reaction proceeds as above and is terminated as described.
Comparison of the counts of samples with inhibitors to an uninhibited (DMSO only) positive control yield a percent inhibition. A plot of percent inhibition vs. log of inhibitor concentration, fit to a Sigmoidal 4 parameter equation is used to calculate IC50.
Starting materials are commercially available or are made using known procedures or as shown below. The examples may be synthesized using the general schemes provided below. The data reported for the examples below were obtained using the RTA assay in 95% human serum. […] When compounds of Formula I are mentioned herein, such compounds include compounds defined generically by Formula I and also the specific examples disclosed herein.

[4] = Phase III outcomes trial, cited from earlier work
[5] = patients on anacetrapib with baseline statin therapy, compared with patients treated with just a statin

COc1cc(F)c(C(C)C)cc1-c1ccc(C(F)(F)F)cc1CN1C(=O)O[C@H](c2cc(C(F)(F)F)cc(C(F)(F)F)c2)[C@@H]1C [anacetrapib]
decrease of LDL-C [1, 5]: 40% | increase of HDL-C [1, 5]: 138% | increase in mortality ([1]; patients treated with anacetrapib, DEFINE trial): unlikely

CCOC(=O)N1c2ccc(C(F)(F)F)cc2[C@@H](N(Cc2cc(C(F)(F)F)cc(C(F)(F)F)c2)C(=O)OC)C[C@H]1CC [torcetrapib]
incidence of mortality [2]: higher incidence of mortality

COc1ncc(-c2c(C)cc(C(=O)O)cc2C)cc1-c1ccc(C(F)(F)F)cc1[C@@H]1CC[C@H]2[C@@H](c3ccnc(C(F)(F)F)c3)SC(=O)N12 [Example 8, 4-{6-methoxy-5-[2-{(1R,5S,7aS)-3-oxo-1-[2-(trifluoromethyl)pyridin-4-yl]tetrahydro-1H-pyrrolo[1,2-c][1,3]thiazol-5-yl}-4-(trifluoromethyl)phenyl]pyridin-3-yl}-3,5-dimethylbenzoic acid]
IC50 [3]: 143 nM

CCC(CC)CC1(C(=O)Nc2ccccc2SC(=O)C(C)C)CCCCC1 [dalcetrapib]
clinical benefit (interim data) ([4]; terminated early): did not show a clinical benefit | safety issues [4]: no safety issues detected

COc1ncc(-c2ccc(C(=O)O)cc2C)cc1-c1ccc(C(F)(F)F)cc1[C@@H]1CC[C@H]2[C@@H](c3ccnc(C(F)(F)F)c3)SC(=O)N12 [Example 10, 4-{6-methoxy-5-[2-{(1R,5S,7aS)-3-oxo-1-[2-(trifluoromethyl)pyridin-4-yl]tetrahydro-1H-pyrrolo[1,2-c][1,3]thiazol-5-yl}-4-(trifluoromethyl)phenyl]pyridin-3-yl}-3-methylbenzoic acid]
IC50 [3]: 3940 nM
